Measurements reported in a melting point compilation (Tetko et al.; mined from patent text by program, amines drawn as free bases though some values may be those of a salt).

Row | melting point | Compound
1 | 175 to 178 °C | Cc1ccc(-c2ccc(C(=O)Nc3cc4ncc(CN5CCCC5)cc4cc3C)cc2F)cc1
2 | 175 to 176 °C | CC(C)N(CCCC1CCN(CCNC(=O)N2c3cc(Cl)ccc3C(=O)Nc3cccnc32)CC1)C(C)C
3 | 115 to 116 °C | CC(C)OC(=O)C(C(=O)Nc1ccccc1)=C1SCS1
4 | 205 to 207 °C | O=C1CC2(C(=O)N1)C(=O)N(Cc1ccc(Cl)c(Cl)c1)c1ccccc12 (stereo not drawn)
5 | 151 to 153 °C | CSC1C(=O)Nc2c(Nc3ccccc3Cl)cccc21 (stereo not drawn)
6 | 144 to 145 °C | Cc1sc(C(N)=O)c2c1-c1c(cnn1CC(F)(F)F)CC2
7 | 132 °C | CCCOc1c(-c2ccccc2)n[nH]c1-c1ccccc1
8 | 118 to 119 °C | c1ccc(OCC2CCN(CCCOc3cccc4[nH]ccc34)CC2)cc1
9 | 170 °C | Cc1ccccc1C(=O)Nc1nc(C(Cl)(Cl)Cl)ns1
10 | 178 to 181 °C | COc1ccc(N2CCC(C(N)=O)CC2)cc1
11 | 105 to 106 °C | [N-]=[N+]=NC(=O)C=Cc1cccc2[nH]ccc12
12 | 190 to 193 °C | O=S(Cc1ccccc1)c1nc2cnccc2[nH]1 (stereo not drawn)
13 | 184 to 187 °C | O=C1CC[N+]([O-])=C(c2ccccc2Cl)c2cc(Cl)ccc21
14 | 131 to 133 °C | Cc1cccc(C)c1O[C@@H]1CCNC[C@H]1O (relative stereo)
15 | 84 to 85 °C | COC(=O)C(C)(C)C(=O)c1ccc(-n2cncn2)cc1
16 | 164 to 165 °C | O=[N+]([O-])c1ccc2c(ccn2-c2cccnc2)c1
17 | 214 to 215 °C | NC1=NC2(CN(C(=O)c3cccs3)C2)Nc2cccc(F)c21
18 | 227 to 229 °C | Cc1c(-c2ccc(O)c(Cl)c2)sc(C=O)c1-c1ccc(O)c(F)c1
19 | 94 to 95 °C | COC(=O)c1ccc(CCNCC(O)c2ccccc2Cl)cc1 (stereo not drawn)
20 | 136 to 138 °C | CC(C)CC1(C(CCN2C(=O)c3cccc([N+](=O)[O-])c3C2=O)C(=O)NO)CCN(CCc2ccccc2)C1=O (stereo not drawn)
21 | 151 °C | C[C@H](NC(=O)OC(C)(C)C)C(=O)NC1CCC(Nc2cccc3c2C(=O)c2ccccc2C3=O)CC1 (stereo partly drawn)
22 | 150 to 152 °C | OCCN1CCN(C2Cc3ccccc3Sc3cc(F)c(Cl)cc32)CC1 (stereo not drawn)
23 | 34 to 35 °C | COC(=O)c1c(C)oc(C)c1-c1ccc(F)cc1
24 | 184 to 185 °C | COc1ccc(C(=O)Nc2ccccc2)cc1NCc1cccc(C)c1

Row | melting point | Compound
25 | 76 °C | C[C@@H](NC(=CC(=O)OC(C)(C)C)Cc1cc(F)c(F)cc1F)c1ccccc1
26 | 80 °C | Nc1nc(-c2cn([C@H](CO)CCc3ccccc3)cn2)n[nH]1
27 | 122 °C | Cc1ccc2c(c1)CCC1=C2CCC(=O)N1C
28 | 243 to 245 °C | O=C1Cc2cccc(S(=O)c3ccccc3Cl)c2N1 (stereo not drawn)
29 | 140 °C | CC(C)(C)OC(=O)CN(C(=O)CN1C(=O)c2ccccc2C1=O)c1ccccc1F
30 | 86 °C | CCN(CC)C(=O)c1cc2ccsc2c(-c2ccccc2Cl)n1
31 | 115 to 117 °C | O=C(NCCN1CCN(c2cccc(Cl)c2)CC1)c1nsc2ccccc12
32 | 361 to 363 °C | O=c1c2c(Cl)cc(Cl)cc2[nH]c2c(O)nn(-c3ccccc3)c(=O)c12
33 | > 300 °C | O=C(O)c1ccc(-c2n[nH]c(-c3ccccc3)n2)cc1
34 | 211 to 213 °C | COc1ccc2c(c1)NC1(CCN(C(C)=O)CC1)c1cccn1-2
35 | 120 to 121 °C | O=C(NCCN1CCOCC1)c1ccc(Cl)cc1
36 | 67 to 71 °C | Cc1oc(-c2cccc(-c3ccccc3)c2)nc1CCOc1cccc(OC(C)(C)C(=O)O)c1
37 | 265 to 266 °C | Cn1c(-c2ccc(C(O)(C(F)(F)F)C(F)(F)F)cc2)cc2ccccc2c1=O
38 | 210 to 212 °C | O=C(NCc1ccc(Cl)cc1)c1cn2c(CO)cc3cc(CN4CCOCC4)cc(c1=O)c32
39 | 70 to 71 °C | CSc1ccc2c3c(cccc13)C(=O)N2C(C)C
40 | 118 to 120 °C | N#Cc1cc(Cl)ccc1Oc1cccc(O)c1
41 | 107 to 109 °C | COC1(c2cc(F)cc(Sc3ccc4c(c3)O[C@H](C)C(=O)N4C)c2)CCOCC1
42 | 147 to 149 °C | COc1ccc(N2C[C@](C)(COc3ccc(C#N)cc3)OC2=O)cc1
43 | 153 °C | C#CCOC(=O)C1=C(C)N2CCNC2=C(C(=O)OCC)C1c1cccc([N+](=O)[O-])c1 (stereo not drawn)
44 | 119 to 120 °C | C=CCN1CCN(C(=O)Cn2sc3ccccc3c2=O)CC1
45 | 218 to 220 °C | COC(=O)C1=C(C(=O)OC)C(N)C2=C(c3cc4ccccc4s3)N=NC2=N1 (stereo not drawn)
46 | 172 to 174 °C | Cc1cc(S(=O)(=O)Nc2cccc(Br)c2)c2c(C)ccc(C(C)C)cc1-2
47 | 135 to 136 °C | O=C(N[C@@H]1CONC1=O)OCc1ccccc1
48 | 116 to 117 °C | Cc1coc2c1C(=O)CC(c1cccc(Cl)c1Cl)C2 (stereo not drawn)

Second part, the molecule before the results:

Row | Compound | melting point
49 | CCc1nc(C)c(CC(=O)N(CC)CC)c(=O)n1Cc1ccc(-c2ccccc2-c2nnn[nH]2)cc1 | 125 to 131 °C
50 | CCNC(=O)N1CCc2ccc(S(=O)(=O)NC(=O)NC3CCCCC3)cc2CC1 | 158 to 160 °C
51 | CN(C[C@H]1CC[C@H](C(=O)O)CC1)c1ncc(Br)cn1 | 111 to 113 °C
52 | COc1ccc(S(=O)(=O)N2C(=O)C(c3ccccc3OC)(N3Cc4cc(OC)c(OC)cc4C[C@H]3C(=O)N(C)C)c3cc(Cl)ccc32)c(OC)c1 (stereo partly drawn) | 157 °C
53 | COC(=O)Nc1ccc(OC(=O)OC)cc1I | 106 °C
54 | CCCCN(CCCC)S(=O)(=O)c1cc(C(=O)CCl)ccc1Cl | 71 °C
55 | CCOC(=O)C(=NOC(C)C)c1csc(N)n1 | 162 to 164 °C
56 | Cc1cc(Cl)ccc1NC(=O)NCCCl | 190 °C
57 | CCCc1c(OCC(O)COc2ccc(CC(=O)O)cc2F)ccc(C(C)=O)c1O (stereo not drawn) | 137 to 138 °C
58 | OCc1cccn2cc(C(F)(F)F)nc12 | 118 to 120 °C
59 | O=S(=O)(c1ccc2ccccc2c1)N1CCOc2ccc(CCCI)cc21 | 87 to 88 °C
60 | CC(=O)Nc1nc(Cl)c2c(ncn2COC(COC(C)C)COC(C)C)n1 | 73 to 75 °C
61 | NC(=S)NN=C(CCCOC(=O)Nc1ccccc1)c1ccccc1 | 140 to 142 °C
62 | CC(C)(C)c1cc(-c2nn(CCCBr)c(=O)o2)cc(C(C)(C)C)c1O | 130 to 131 °C
63 | O=C(O)c1cn(CC2CC2)c2c(F)c(F)c(F)cc2c1=O | 223 to 255 °C
64 | CCOC(=O)C(=O)C1Cc2ccc(NS(=O)(=O)c3ccc(C)cc3)cc2C1=O (stereo not drawn) | 202 to 204 °C
65 | O=S(=O)(Nc1ncncc1-c1ccc(Cl)cc1)c1ccc(O)cc1 | 231 to 232 °C
66 | CCOC(=O)N(CC)c1cccc(-c2ccnc3ccnn23)c1 | 79 to 81 °C
67 | COc1nc2cc(Cl)c(Cl)cc2nc1OC | 144 to 146 °C
68 | Cn1nc(C(F)(F)F)cc1Oc1cc(Cl)c(Cl)cc1[N+](=O)[O-] | 99 to 100 °C
69 | CCCNS(=O)(=O)c1cccc(C)c1C#N | 74 to 77 °C
70 | O=C(O)CCCc1cc2nc(Cl)ccc2n1S(=O)(=O)c1ccc(-c2cscn2)cc1 | 211 to 217 °C
71 | CC(C)(C)c1cc(Cc2ccc(Cl)nn2)c(O)c(C(C)(C)C)c1 | 143 to 144 °C
72 | c1ccc(-c2nc3ccc(N4CCC(N5CCCC5)CC4)nn3c2-c2ccncc2)cc1 | 165 to 166 °C
73 | COC(=O)c1sccc1NC(=O)OC(C)C | 105 to 107 °C
74 | COc1nc(N)nc2c1ncn2CCC(CO)CO | 84 to 86 °C
75 | COc1ccc2c(c1)CCC1C2CCC2(CC(C)C)C(O)CCC12 (stereo not drawn) | 103 to 104 °C
76 | CCOc1ccc2[nH]c(=O)sc2c1 | 147 °C

Row | Compound | melting point
77 | CCOC(=O)C(=CNc1ncnc2ccc(N(C(=O)CC(C)(C)C)C(=O)CC(C)(C)C)cc12)C(=O)OCC | 100 to 102 °C
78 | CCCCCCCCCCOC(C)c1ccc(C(=O)O)cc1 (single isomer, unassigned; (+)) | 56.6 to 57.5 °C
79 | COc1cc(-c2nc(C)c(C(C)=NNC(N)=O)s2)cc(OC)c1OC | 240 to 242 °C
80 | CN(C)C(=O)C(C)(C)c1cc(C#N)ccc1O | 146 to 148 °C
81 | NC(=O)c1cc(F)c(N[C@H]2CC[C@H](N)CC2)cc1F | 209 to 210 °C
82 | O=Cc1ccc(-c2cccc(-c3cn([C@H]4CN5CCC4CC5)nn3)c2)s1 | 150 °C
83 | C=CCC(NC(C)=O)C(=O)NCc1ccccc1 (stereo not drawn) | 118 to 120 °C
84 | CCc1cc(NC(=O)c2nnn(Cc3ccccc3)n2)c(O)c(C(C)=O)c1 | 159 to 161 °C
85 | COC(=O)CC/C(C)=C/Cc1c(OC)c(C)c2c(c1C(=O)O)C(=O)OC2 | 169 to 170 °C
86 | CC(C)C(=O)OC1C(CO)OC(n2cnc3c(N)ncnc32)C1OC(=O)C(C)C (stereo not drawn) | 207 to 208 °C
87 | CCOC(=O)c1oc(SC)c2c1CCC(Br)C2=O (stereo not drawn) | 130 to 131 °C
88 | Cc1c(SCCCN2CCN(Cc3ccncc3)CC2)ccnc1CNc1cnc2ccccc2c1 | 145 to 150 °C
89 | COc1cc(O)c(N2CCN(CCN3CC(C)(C)C3)C2=O)cc1Cl | 138 °C
90 | C/C=C/C1CCC2c3ccc(OCC)c(F)c3OC2C1 (stereo not drawn) | 145 °C
91 | CCOc1cc(Cc2cnc(N)nc2N)cc2c1OC(C)(C)C=C2C(C)(O)CC (stereo not drawn) | 127 to 128 °C
92 | CCCn1cnc2c1c(=O)n(CCCC(C)(C)O)c(=O)n2C | 96 to 98 °C
93 | Cc1ccc(C(=O)c2c(C)cc(C)cc2OCC(O)CNC(C)(C)C)cc1 (stereo not drawn) | 116 to 118 °C
94 | CNC(=O)C(C)(C)N(OC(C)(C)C#N)C(C)(C)C | 96 to 101 °C
95 | CCc1cc2c(s1)SCCc1cc(=O)[nH]nc1-2 | 256 to 258 °C
96 | CN(Cc1ccco1)C(=O)C=C1OC(C)(C)OC1=O | 83 to 86 °C
97 | COc1nc(OC)c2cc(CBr)ccc2n1 | 138 to 143 °C
98 | N#Cc1ccc(NC(=S)NCc2cccnc2)cc1 | 181 °C
99 | COc1ccc(CSc2cc(OC)c(OC)c(OC)c2)cc1 | 65 to 67 °C
100 | COc1ccc(C(=O)[NH+]([O-])c2c(Cl)cncc2Cl)c2c1oc1ccc(C(F)(F)F)cc12 (stereo not drawn) | 272 °C
101 | Cc1ccc2c(c1)C(c1ccccc1)(C(F)(F)F)c1cc(C)ccc1O2 | 150 to 151 °C
102 | CSCCCCC(c1cc(F)ccc1F)S(=O)(=O)c1ccc(Cl)cc1 (stereo not drawn) | 103 to 106 °C
103 | CCCCCCCCCCCCCc1c[nH]c(C(=O)OCC)c1 | 59 to 60 °C
